According to patent publication US20080051466A1, “Isoalpha acid based protein kinase modulation cancer treatment” (Metaproteomics, LLC, priority 2006, published 2008):

Assays:
Assay in all cases: KinaseProfiler Assay
Format in all cases: biochemical
PhKγ2 = target: T1, PhKγ2 (Homo sapiens, UniProt P15735); details: read-out: PhKγ2, % of Control
T1 sequence (P15735 1-406): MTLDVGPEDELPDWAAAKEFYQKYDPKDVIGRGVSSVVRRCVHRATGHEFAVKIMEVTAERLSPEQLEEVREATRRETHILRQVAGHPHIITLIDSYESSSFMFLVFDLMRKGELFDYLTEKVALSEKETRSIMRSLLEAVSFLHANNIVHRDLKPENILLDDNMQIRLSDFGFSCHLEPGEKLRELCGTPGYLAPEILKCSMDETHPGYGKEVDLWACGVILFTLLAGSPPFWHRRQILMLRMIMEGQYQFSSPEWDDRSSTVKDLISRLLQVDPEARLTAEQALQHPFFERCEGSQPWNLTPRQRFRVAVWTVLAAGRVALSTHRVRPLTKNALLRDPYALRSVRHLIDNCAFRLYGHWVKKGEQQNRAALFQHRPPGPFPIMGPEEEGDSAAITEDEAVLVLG

FGFR2 = FGFR2 (Homo sapiens, UniProt P21802); details: read-out: FGFR2, % of Control
PKA = PKA (Homo sapiens, UniProt P17612); details: read-out: PKA, % of Control
IRAK1 = IRAK1 (Homo sapiens, UniProt P51617); details: read-out: IRAK1, % of Control
DAPK1 = DAPK1 (Homo sapiens, UniProt P53355); details: read-out: DAPK1, % of Control
CDK6/cyclinD3 = CDK6/cyclinD3 (Homo sapiens, UniProt Q00534); details: read-out: CDK6/cyclinD3, % of Control
CHK2 = CHK2 (Homo sapiens, UniProt O96017); details: read-out: CHK2, % of Control
PAK3 = PAK3 (Homo sapiens, UniProt O75914); details: read-out: PAK3, % of Control
PKBα = PKBα (Homo sapiens, UniProt P31749); details: read-out: PKBα, % of Control
CK1γ3 = CK1γ3 (Homo sapiens, UniProt Q9Y6M4); details: read-out: CK1γ3, % of Control
GSK3β = GSK3β (Homo sapiens, UniProt P49841); details: read-out: GSK3β, % of Control
TSSK2 = target: T2, TSSK2 (Homo sapiens, UniProt Q96PF2); details: read-out: TSSK2, % of Control
T2 sequence (Q96PF2 1-358): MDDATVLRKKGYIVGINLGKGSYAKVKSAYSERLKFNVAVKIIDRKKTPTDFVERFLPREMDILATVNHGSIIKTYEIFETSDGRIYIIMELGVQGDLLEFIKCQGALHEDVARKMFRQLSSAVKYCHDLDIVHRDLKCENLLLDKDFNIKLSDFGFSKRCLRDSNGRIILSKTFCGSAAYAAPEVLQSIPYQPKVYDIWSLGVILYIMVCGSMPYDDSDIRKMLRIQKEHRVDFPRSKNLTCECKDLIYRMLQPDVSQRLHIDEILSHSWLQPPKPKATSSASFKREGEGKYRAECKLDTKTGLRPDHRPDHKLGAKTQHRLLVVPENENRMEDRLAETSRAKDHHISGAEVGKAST

Bmx = Bmx (Homo sapiens, UniProt P51813); details: 25 ug/ml; read-out: Bmx, % of Control
CK1γ1 = CK1γ1 (Homo sapiens, UniProt Q9HCP0); details: read-out: CK1γ1, % of Control

Sequence of PAK3 (O75914 whole entry): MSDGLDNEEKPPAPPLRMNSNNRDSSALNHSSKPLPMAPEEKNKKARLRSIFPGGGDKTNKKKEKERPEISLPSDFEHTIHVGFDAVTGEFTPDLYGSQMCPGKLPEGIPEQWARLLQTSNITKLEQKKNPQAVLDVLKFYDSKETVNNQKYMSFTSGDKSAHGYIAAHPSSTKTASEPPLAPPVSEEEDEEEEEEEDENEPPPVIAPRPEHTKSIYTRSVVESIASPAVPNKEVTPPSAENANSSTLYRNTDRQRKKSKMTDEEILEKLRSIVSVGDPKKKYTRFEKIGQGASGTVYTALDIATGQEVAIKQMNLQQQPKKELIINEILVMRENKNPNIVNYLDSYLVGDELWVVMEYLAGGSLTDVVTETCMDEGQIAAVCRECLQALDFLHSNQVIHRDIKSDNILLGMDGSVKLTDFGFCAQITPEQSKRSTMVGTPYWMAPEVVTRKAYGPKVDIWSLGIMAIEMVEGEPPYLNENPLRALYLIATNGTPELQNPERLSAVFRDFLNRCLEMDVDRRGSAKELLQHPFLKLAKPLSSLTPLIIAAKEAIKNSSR
Sequence of CHK2 (O96017 whole entry): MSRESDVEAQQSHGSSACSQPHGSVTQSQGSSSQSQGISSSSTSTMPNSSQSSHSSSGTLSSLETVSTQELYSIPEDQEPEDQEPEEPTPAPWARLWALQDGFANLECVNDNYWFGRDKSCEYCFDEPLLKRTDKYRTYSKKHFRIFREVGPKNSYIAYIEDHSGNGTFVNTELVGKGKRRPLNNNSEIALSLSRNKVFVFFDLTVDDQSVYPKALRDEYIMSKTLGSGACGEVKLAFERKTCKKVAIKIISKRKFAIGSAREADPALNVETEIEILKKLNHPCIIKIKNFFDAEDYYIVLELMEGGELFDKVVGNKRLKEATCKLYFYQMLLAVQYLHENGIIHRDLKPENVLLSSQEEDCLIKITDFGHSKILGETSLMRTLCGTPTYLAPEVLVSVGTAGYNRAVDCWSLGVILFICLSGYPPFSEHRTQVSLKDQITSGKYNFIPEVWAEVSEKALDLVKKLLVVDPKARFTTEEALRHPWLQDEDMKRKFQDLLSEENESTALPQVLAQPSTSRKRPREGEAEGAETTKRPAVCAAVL
Sequence of PKBα (P31749 whole entry): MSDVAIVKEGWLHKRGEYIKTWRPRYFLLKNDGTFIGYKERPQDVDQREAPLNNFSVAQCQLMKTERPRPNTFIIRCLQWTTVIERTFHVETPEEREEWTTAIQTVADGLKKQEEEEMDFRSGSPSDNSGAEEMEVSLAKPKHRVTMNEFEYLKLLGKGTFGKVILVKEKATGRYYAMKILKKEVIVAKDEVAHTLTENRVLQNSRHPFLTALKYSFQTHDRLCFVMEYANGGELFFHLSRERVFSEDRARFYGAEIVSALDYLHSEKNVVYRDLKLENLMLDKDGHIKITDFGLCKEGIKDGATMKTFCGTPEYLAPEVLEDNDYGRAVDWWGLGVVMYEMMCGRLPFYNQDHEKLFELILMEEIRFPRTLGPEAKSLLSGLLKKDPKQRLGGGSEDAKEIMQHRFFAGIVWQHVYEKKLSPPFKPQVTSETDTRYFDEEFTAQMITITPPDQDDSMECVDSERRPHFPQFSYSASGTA
Sequence of GSK3β (P49841 whole entry): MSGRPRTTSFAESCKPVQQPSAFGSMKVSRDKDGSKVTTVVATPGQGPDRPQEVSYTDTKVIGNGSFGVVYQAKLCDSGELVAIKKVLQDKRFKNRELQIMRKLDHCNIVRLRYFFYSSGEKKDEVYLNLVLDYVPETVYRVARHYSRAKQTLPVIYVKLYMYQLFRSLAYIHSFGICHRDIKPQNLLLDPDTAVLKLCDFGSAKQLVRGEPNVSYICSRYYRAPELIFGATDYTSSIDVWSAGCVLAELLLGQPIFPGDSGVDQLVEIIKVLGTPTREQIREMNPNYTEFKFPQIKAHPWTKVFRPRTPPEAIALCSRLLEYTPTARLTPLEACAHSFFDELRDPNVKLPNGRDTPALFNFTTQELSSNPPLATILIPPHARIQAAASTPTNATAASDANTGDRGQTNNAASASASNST
Sequence of IRAK1 (P51617 whole entry): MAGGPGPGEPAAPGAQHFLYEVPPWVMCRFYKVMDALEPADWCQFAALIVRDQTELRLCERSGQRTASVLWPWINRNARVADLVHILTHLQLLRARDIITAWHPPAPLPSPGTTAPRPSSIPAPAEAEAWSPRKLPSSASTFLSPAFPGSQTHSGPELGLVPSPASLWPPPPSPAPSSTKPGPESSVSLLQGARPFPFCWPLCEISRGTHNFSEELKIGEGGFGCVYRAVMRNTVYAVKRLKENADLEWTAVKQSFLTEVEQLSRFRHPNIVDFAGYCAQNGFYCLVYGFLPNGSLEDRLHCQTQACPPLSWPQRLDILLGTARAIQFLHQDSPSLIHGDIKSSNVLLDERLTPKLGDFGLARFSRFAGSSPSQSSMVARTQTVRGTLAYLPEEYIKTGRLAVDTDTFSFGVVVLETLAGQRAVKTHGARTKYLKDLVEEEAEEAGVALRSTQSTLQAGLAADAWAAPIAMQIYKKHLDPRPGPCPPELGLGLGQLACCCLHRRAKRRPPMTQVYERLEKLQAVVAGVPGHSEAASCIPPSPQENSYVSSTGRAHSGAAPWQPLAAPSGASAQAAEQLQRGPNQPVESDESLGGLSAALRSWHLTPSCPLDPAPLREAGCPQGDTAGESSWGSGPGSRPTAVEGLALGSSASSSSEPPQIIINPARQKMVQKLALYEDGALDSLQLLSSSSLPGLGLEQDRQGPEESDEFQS
Sequence of CDK6/cyclinD3 (Q00534 whole entry): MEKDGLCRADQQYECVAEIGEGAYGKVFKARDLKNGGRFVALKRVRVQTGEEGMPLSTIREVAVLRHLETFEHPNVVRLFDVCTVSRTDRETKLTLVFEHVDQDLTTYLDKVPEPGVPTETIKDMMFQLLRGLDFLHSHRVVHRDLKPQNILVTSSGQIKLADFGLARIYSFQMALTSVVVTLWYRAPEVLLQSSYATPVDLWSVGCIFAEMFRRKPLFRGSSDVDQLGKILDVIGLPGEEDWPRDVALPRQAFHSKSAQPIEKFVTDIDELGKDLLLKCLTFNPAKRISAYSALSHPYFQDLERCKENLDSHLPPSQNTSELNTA
Sequence of CDK6/cyclinD3 (P30281 whole entry partner): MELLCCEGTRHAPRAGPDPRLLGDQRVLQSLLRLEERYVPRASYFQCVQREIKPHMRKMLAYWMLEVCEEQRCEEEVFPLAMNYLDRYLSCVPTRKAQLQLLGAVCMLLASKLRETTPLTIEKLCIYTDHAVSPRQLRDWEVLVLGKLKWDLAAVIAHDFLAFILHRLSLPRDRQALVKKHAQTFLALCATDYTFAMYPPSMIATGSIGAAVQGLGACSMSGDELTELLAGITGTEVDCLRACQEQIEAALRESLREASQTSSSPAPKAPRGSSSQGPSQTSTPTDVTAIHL
Sequence of FGFR2 (P21802 22-821): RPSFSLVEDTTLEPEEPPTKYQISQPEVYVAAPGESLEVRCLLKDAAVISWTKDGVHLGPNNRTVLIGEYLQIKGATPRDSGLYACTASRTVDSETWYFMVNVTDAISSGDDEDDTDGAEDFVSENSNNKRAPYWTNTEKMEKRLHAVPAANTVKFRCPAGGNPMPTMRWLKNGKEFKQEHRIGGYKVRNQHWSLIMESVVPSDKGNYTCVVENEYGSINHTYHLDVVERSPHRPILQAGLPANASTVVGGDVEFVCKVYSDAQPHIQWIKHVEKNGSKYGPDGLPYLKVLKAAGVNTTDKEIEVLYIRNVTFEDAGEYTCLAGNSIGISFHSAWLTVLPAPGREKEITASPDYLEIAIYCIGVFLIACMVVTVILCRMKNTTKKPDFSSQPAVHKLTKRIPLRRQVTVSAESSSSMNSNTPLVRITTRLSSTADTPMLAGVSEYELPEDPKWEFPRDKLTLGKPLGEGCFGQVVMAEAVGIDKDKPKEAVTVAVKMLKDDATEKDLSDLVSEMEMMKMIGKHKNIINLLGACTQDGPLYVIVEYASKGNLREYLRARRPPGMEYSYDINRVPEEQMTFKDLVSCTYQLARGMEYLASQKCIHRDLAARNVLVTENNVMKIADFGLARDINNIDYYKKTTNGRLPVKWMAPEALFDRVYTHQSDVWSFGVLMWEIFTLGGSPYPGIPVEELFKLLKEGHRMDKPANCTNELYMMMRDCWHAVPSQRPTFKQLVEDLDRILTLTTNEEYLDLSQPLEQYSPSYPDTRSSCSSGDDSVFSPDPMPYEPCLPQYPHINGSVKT
Sequence of CK1γ3 (Q9Y6M4 whole entry): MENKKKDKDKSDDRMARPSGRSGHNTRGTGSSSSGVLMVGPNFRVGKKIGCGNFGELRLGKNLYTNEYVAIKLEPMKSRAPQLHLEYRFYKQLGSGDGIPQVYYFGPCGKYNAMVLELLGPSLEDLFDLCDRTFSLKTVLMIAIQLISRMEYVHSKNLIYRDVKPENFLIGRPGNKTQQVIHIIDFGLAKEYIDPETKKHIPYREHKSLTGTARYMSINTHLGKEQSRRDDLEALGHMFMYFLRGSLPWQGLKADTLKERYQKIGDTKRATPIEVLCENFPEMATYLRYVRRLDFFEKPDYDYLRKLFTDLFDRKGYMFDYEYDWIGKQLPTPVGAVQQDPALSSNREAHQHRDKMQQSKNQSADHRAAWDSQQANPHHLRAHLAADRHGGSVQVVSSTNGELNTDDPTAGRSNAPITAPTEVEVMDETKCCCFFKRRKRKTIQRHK

remaining activity at 1 µg/mL (PhKγ2; 1 ug/ml): 106% | remaining activity at 5 µg/mL (PhKγ2; 5 ug/ml): 60% | remaining activity at 25 µg/mL (PhKγ2; 25 ug/ml): 11% | remaining activity at 50 µg/mL (PhKγ2; 50 ug/ml): 5% | remaining activity at 1 µg/mL (FGFR2; 1 ug/ml): 116% | remaining activity at 5 µg/mL (FGFR2; 5 ug/ml): 89% | remaining activity at 25 µg/mL (FGFR2; 25 ug/ml): 36% | remaining activity at 1 µg/mL (PKA; 1 ug/ml): 105% | remaining activity at 5 µg/mL (PKA; 5 ug/ml): 109% | remaining activity at 25 µg/mL (PKA; 25 ug/ml): 98% | remaining activity at 50 µg/mL (PKA; 50 ug/ml): 21% | remaining activity at 1 µg/mL (IRAK1; 1 ug/ml): 129% | remaining activity at 5 µg/mL (IRAK1; 5 ug/ml): 104% | remaining activity at 50 µg/mL (IRAK1; 50 ug/ml): 36% | remaining activity at 5 µg/mL (DAPK1; 5 ug/ml): 85% | remaining activity at 50 µg/mL (DAPK1; 50 ug/ml): 20% | remaining activity at 1 µg/mL (CDK6/cyclinD3; 1 ug/ml): 110% | remaining activity at 5 µg/mL (CDK6/cyclinD3; 5 ug/ml): 79% | remaining activity at 25 µg/mL (CDK6/cyclinD3; 25 ug/ml): 23% | remaining activity at 50 µg/mL (CDK6/cyclinD3; 50 ug/ml): 7% | remaining activity at 1 µg/mL (CHK2; 1 ug/ml): 25% | remaining activity at 5 µg/mL (CHK2; 5 ug/ml): 5% | remaining activity at 25 µg/mL (CHK2; 25 ug/ml): 3% | remaining activity at 1 µg/mL (PAK3; 1 ug/ml): 21% | remaining activity at 5 µg/mL (PAK3; 5 ug/ml): 18% | remaining activity at 25 µg/mL (PAK3; 25 ug/ml): 8% | remaining activity at 1 µg/mL (PKBα; 1 ug/ml): 102% | remaining activity at 25 µg/mL (PKBα; 25 ug/ml): 18% | remaining activity at 50 µg/mL (PKBα; 50 ug/ml): 5% | remaining activity at 1 µg/mL (CK1γ3; 1 ug/ml): 98% | remaining activity at 5 µg/mL (CK1γ3; 5 ug/ml): 51% | remaining activity at 25 µg/mL (CK1γ3; 25 ug/ml): 22% | remaining activity at 50 µg/mL (CK1γ3; 50 ug/ml): 15% | remaining activity at 1 µg/mL (GSK3β; 1 ug/ml): 120% | remaining activity at 5 µg/mL (GSK3β; 5 ug/ml): 99% | remaining activity at 25 µg/mL (GSK3β; 25 ug/ml): 25% | remaining activity at 50 µg/mL (GSK3β; 50 ug/ml): 3% | remaining activity at 1 µg/mL (TSSK2; 1 ug/ml): 102% | remaining activity at 5 µg/mL (TSSK2; 5 ug/ml): 95% | remaining activity at 25 µg/mL (TSSK2; 25 ug/ml): 61% | remaining activity at 50 µg/mL (TSSK2; 50 ug/ml): 48% | remaining activity at 25 µg/mL (Bmx): 22% | remaining activity at 1 µg/mL (CK1γ1; 1 ug/ml): 101% | remaining activity at 5 µg/mL (CK1γ1; 5 ug/ml): 79% | remaining activity at 25 µg/mL (CK1γ1; 25 ug/ml): 50% | remaining activity at 50 µg/mL (CK1γ1; 50 ug/ml): 26%
SMILES: COc1cc(O)c(CC=C(C)C)c(O)c1C(=O)/C=C/c1ccc(O)cc1 [Xanthohumol, xanthohumol]
